Laboratory results reported in BindingDB's records for doi:10.1021/jm00164a020 (Merck Sharp & Dohme Research Laboratories, 1990).

Each compound was assayed against Gastrin/cholecystokinin type B receptor (Cavia porcellus) (assay: Inhibition of binding of [125I]gastrin to Cholecystokinin type B receptor from guinea pig gastric glands).
`CCCCCN(CCCCC)C(=O)C(CCC(=O)N1CCCC1)NC(=O)Nc1ccc(Cl)cc1` (centres undefined) showed an IC50 of 0.43 µM.
`O=C(O)CC[C@H](NC(=O)c1cc2ccccc2[nH]1)C(=O)N(C1CCCCC1)C1CCCCC1` showed an IC50 of 4.1 µM.
In the case of `CCCCCN(CCCCC)C(=O)C(CCC(=O)OCc1ccccc1)NC(=O)Nc1ccc(Cl)cc1` (centres undefined), the IC50 is reported as 44 µM.
In the case of `CCCCCN(CCCCC)C(=O)[C@@H](CCC(=O)O)NC(=O)Nc1cccc(OC)c1`, the IC50 is reported as 13 µM.
